The melting point is the temperature of the solid-liquid transition.

Four compounds from US10131606B2, “Tetrarylmethane ethers” (Rohm and Haas Company, priority 2014, dated 2018) can be followed below.

In turn, `CCCCCCCOc1ccc(C(c2ccccc2)(c2ccccc2)c2ccc(OCCCCCCC)cc2)cc1` [BHeptTPM, Bis(4-(heptyloxy)phenyl)diphenylmethane] registered a melting point of 103 to 105 °C.

For `CCCCCCOc1ccc(C(c2ccccc2)(c2ccccc2)c2ccc(OCCCCCC)cc2)cc1` [BHexTPM], the melting point fell in the range of 120 to 122 °C. `CCCCCCCCOc1ccc(C(c2ccccc2)(c2ccccc2)c2ccc(OCCCCCCCC)cc2)cc1` [BOctTPM, Bis(4-(octyloxy)phenyl)diphenylmethane] showed a melting point of 84.5 to 86.5 °C.

`CCCCCOc1ccc(C(c2ccccc2)(c2ccccc2)c2ccc(OCCCCC)cc2)cc1` [BPentTPM, Bis(4-(pentyloxy)phenyl)diphenylmethane]: the melting point lay in the range of 110 to 113 °C.
